Results from publication PMC12304293, “Combatting virulent gut bacteria by inhibiting the biosynthesis of a two-component lanthipeptide toxin” (Nature Communications, 2025).
“And” between values parts separate entries of the source, which are not always exact repeats. Identical values can stand only once. Non-standard residues stand in square brackets, D forms with d. Residues, ends and D or L forms follow the SMILES beside them. *: point of attachment. boroGlu = O=C(O)CC[C@H](N*)B(O)O; Gly(cPr) = N[C@H](C(=O)O)C1CC1

Key:
[1] = molecular target: T1, His6-CylA-27-412 (Enterococcus faecalis, UniProt A0A2P6AWB8); test: Analytical size exclusion chromatography (pro-domain release); conditions: increasing inhibitor:CylA ratio
T1 sequence (A0A2P6AWB8 27-412): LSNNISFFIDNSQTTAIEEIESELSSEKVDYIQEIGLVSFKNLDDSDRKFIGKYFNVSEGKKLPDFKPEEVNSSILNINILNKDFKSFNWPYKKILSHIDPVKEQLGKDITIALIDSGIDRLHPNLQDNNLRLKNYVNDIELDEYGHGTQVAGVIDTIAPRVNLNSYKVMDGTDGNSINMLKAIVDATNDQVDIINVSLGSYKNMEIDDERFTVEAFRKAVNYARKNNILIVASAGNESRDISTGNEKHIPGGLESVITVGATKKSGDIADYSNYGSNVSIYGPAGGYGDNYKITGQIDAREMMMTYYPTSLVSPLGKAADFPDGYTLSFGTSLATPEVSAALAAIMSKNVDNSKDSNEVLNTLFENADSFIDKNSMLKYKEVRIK
Method: To gain more insight into this phenomenon, His6-CylA-27-412 that had undergone complete autolytic cleavage as determined by SDS-PAGE and that had been purified by size exclusion chromatography (SEC), was analyzed by analytical SEC (aSEC) in the presence of inhibitor 9. […] This assignment was supported by SDS-PAGE analysis of the eluted fractions (Supplementary Fig. 8). […] The SEC retention time data is inconsistent with CylA forming higher order oligomers, ruling out a DegP-like activation mechanism.
Samples of His6-CylA-27-412 prepared as described in ‘Expression and purification of His6-CylA-27-412’ were diluted to a concentration of 50 μM and injected (20 μL injection volume) into an Agilent 1260 infinity analytical high-performance liquid chromatography system equipped with a Biozen™ 1.8 μm, 300 × 4.6 mm LC column pre-equilibriated with aSEC buffer (100 mM NaHPO4, 200 mM NaCl, pH = 7.4). Absorbance at 220 nm was monitored. A flow rate of 0.25 mL/min was used for all experiments. Retention time was correlated to protein size using a Gel Filtration Standard (Biorad) and samples of carbonic anhydrase isolated from bovine erythrocytes (Sigma Aldrich) and albumin isolated from bovine serum (Sigma Aldrich).

[2] = type: in vitro ADME, Enterococcus faecalis; conditions: 100 µM, 37 °C, 20 h
Method: To investigate the stability of 9 in the presence of E. faecalis, cell extracts treated with 9 were tested for inhibitory activity. […] Cultures that were treated with 100 µM of 9 at 37 °C for 20 h gave extracts that inhibited the activity of CylA in vitro. The inhibitory activity of these extracts was about 3-fold less than a sample of fresh 9.
Similiarly, 9 was diluted to 100 µM in BHI that was inoculated with E. faecalis ATCC 29212 before incubating at 37 °C for 20 h. The overnight culture was flash frozen and lyophilized. The lyophilized samples were extracted with a volume of 90% methanol/10% water that was equal to the volume of the sample prior to lyophilization. The extract was assumed to have a concentration of 100 µM. […]
Human Serum + 9 Human Serum
Log(Concentration (µM)) Log(Concentration(µM))
Supplementary Figure 19. The stability of inhibitor 9 in the pres ence of human serum or C+ E. faecalis. A ) C y l A i nhibition activity of an extract of human s erum treated with 9 (100 μM) for 3 h at 37 ̊C. The resulting solution was used to determine the remaining activity of the inhibitor in a […]
CylA activity assay. […] This experiment was perform ed on three different samples of inhibitor (n = 3). […]
(also on this page, place not known: determined. inhibition CylA These IC 50 presence serum This performed A) Non-linear fitting v i/vo IC 50. […]

[3] = test system: cylLL, cylLS, and cylA transcripts in C+ E. faecalis ATCC 29212; test: RT-qPCR of cylLL, cylLS and cylA transcripts; type: cell-based, Enterococcus faecalis
Method: Since the cytolysin BGC is often expressed in two transcripts because of the presence of a weak intergenic terminator between cylLL and cylM, primers and amplicons were selected for cylLL, cylLS and cylA[67].
The amounts of cylLL, cylLS, and cylA transcripts relative to the amount of 16S rRNA were determined by RT-qPCR. Amplicons and primers used to quantify cylLL, cylLS and 16S rRNA were identical to those previously reported. All primers are listed in Supplementary Table 3. Overnight cultures of E. faecalis ATCC 29212 were prepared as described in ‘Detection of CylLS” from extracts of E. faecalis’. Upon inoculation, samples were treated with 100 μM of 9 or vehicle. The samples were incubated at 37 °C for 20 h, then cells were collected by centrifugation (5000 g for 10 min). The supernatant was removed and the cells pellets were re-suspended in Lysis buffer (10 mM TrisHCl, 3 mg/mL lysozyme, pH = 7.8) at a concentration of 160 μL of Lysis buffer for 1 mL of overnight culture. The cells were incubated in Lysis buffer at room temperature for 15 min then RNA was extracted using a Monarch® Total RNA Miniprep Kit. Isolated RNA was immediately converted to cDNA using an iScript™ cDNA Synthesis Kit. cDNA was amplified using a SsoAdvanced Universal SYBR Green Supermix and a StepOnePlus Real-Time PCR System (Applied Biosystems). The expression level of each gene in each sample was determined by taking the difference between the CT of the amplification curve for the gene of interest (cylLL, cylLS or cylA) and the CT of the amplification curve for 16S rRNA, yielding ΔCT. ΔΔCT was determined by taking the difference between the ΔCT of the inhibitor treated sample and the ΔCT of the inhibitor-free control for each gene. Fold change in gene expression was calculature using Eq. (2)[76]. Four biological replicates were performed.2 Foldchangeingeneexpression=2^ΔΔCT

[4] = 100 μM of 9, untreated control = 1.0

Structure (SMILES): CC(=O)NCC(=O)N[C@@H](CC(=O)O)C(=O)N[C@H](C(=O)N[C@@H](CCC(N)=O)C(=O)N[C@@H](C)C(=O)N[C@@H](CCC(=O)O)B(O)O)C1CC1 [Compound 9] (Ac-GD[Gly(cPr)]QA-boroGlu)
- conversion of CylA-96-412°His6-27-95 to the 12.1 min peak (pro-domain release), aSEC [1]: transition appeared complete once a stoichiometric equivalent of inhibitor was added
- inhibitory activity of culture extracts less than a sample of fresh 9 [2]: about 3 fold
- stability in cultures of E. faecalis [2]: relatively good stability
- Fold Change, gene CylA (Figure 8D), replicates [3, 4]: 0.01989 and 0.0236 and 0.00144 and 0.00137
- Fold Change, gene CylLL (Figure 8D), replicates [3, 4]: 0.00585 and 0.2177 and 0.1852
- Fold Change, gene CylLS (Figure 8D), replicates [3, 4]: 0.2335 and 0.2124 and 0.00397 and 0.00605
- reduction in cylA transcripts ([3]; 100 μM, vs untreated control): 86 fold
- reduction in cylLL transcripts ([3]; 100 μM, vs untreated control): 9-10 fold
- reduction in cylLS transcripts ([3]; 100 μM, vs untreated control): 9-10 fold
